Patent US9181255B2, “Fused heteroaromatic pyrrolidinones as SYK inhibitors” (Takeda Pharmaceutical Company Limited, priority 2009, dated 2015)

Target: SYK (Homo sapiens, UniProt P43405)
Assay: SYK inhibition assay: SYK-mediated phosphorylation of FAM-labeled substrate (Caliper microfluidic)
Assay type: biochemical
Settings: read-out: SYK Inhibition (pIC50) (converted)

Structure (SMILES) | IC50
CN[C@H]1CCCC[C@H]1Nc1nc2c(c(Nc3cccc(C)c3)n1)C(=O)NC2 [Example 38, 2-((1R,2S)-2-(Methylamino)cyclohexylamino)-4-(m-tolylamino)-6,7-dihydro-5H-pyrrolo[3,4-d]pyrimidin-5-one] | 631 nM
Cc1cccc(Nc2nc(N[C@@H]3CCCC[C@@H]3N)nc3c2C(=O)NC32CC2)c1 [Example 39, 2′-((1R,2S)-2-Aminocyclohexylamino)-4′-(m-tolylamino)spiro[cyclopropane-1,7′-pyrrolo[3,4-d]pyrimidin]-5′(6′H)-one] | 3160 nM
Cc1cccc(Nc2nc(NCCN)nc3c2C(=O)NC3)c1 [Example 40, 2-(2-Aminoethylamino)-4-(m-tolylamino)-6,7-dihydro-5H-pyrrolo[3,4-d]pyrimidin-5-one] | 251 nM
Cc1cccc(Nc2nc(NCC(C)(C)N)nc3c2C(=O)NC3)c1 [Example 41, 2-(2-Amino-2-methylpropylamino)-4-(m-tolylamino)-6,7-dihydro-5H-pyrrolo[3,4-c]pyrimidin-5-one] | 1260 nM
Cc1cccc(Nc2nc(NCC(N)=O)nc3c2C(=O)NC3)c1 [Example 42, 2-(5-oxo-4-(m-tolylamino)-6,7-dihydro-5H-pyrrolo[3,4-d]pyrimidin-2-ylamino)acetamide] | 158 nM
Cc1cccc(Nc2nc(N(C)CCN)nc3c2C(=O)NC3)c1 [Example 43, 2-((2-Aminoethyl)(methyl)amino)-4-(m-tolylamino)-6,7-dihydro-5H-pyrrolo[3,4-d]pyrimidin-5-one] | 5010 nM
Cc1cccc(Nc2nc(NCC3CCCN3)nc3c2C(=O)NC3)c1 (stereo not drawn) [Example 44, 2-(Pyrrolidin-2-ylmethylamino)-4-(m-tolylamino)-6,7-dihydro-5H-pyrrolo[3,4-d]pyrimidin-5-one] | 631 nM
Cc1cccc(Nc2nc(N3CCC(N)C3)nc3c2C(=O)NC3)c1 (stereo not drawn) [Example 45, 2-(3-Aminopyrrolidin-1-yl)-4-(m-tolylamino)-6,7-dihydro-5H-pyrrolo[3,4-d]pyrimidin-5-one] | 794 nM
Cc1c(-c2nc(N[C@@H]3CCCC[C@@H]3N)nc3c2C(=O)NC3)cnn1C [Example 46, 2-((1R,2S)-2-Aminocyclohexylamino)-4-(1,5-dimethyl-1H-pyrazol-4-yl)-6,7-dihydro-5H-pyrrolo[3,4-d]pyrimidin-5-one] | 1580 nM
N[C@H]1CCCC[C@H]1Nc1nc2c(c(-c3cc4ccccc4[nH]3)n1)C(=O)NC2 [Example 47, 2-((1R,2S)-2-Aminocyclohexylamino)-4-(1H-indol-2-yl)-6,7-dihydro-5H-pyrrolo[3,4-c]pyrimidin-5-one] | 2.51 nM
N[C@H]1CCCC[C@H]1Nc1nc2c(c(-c3ccn[nH]3)n1)C(=O)NC2 [Example 48, 2-((1R,2S)-2-Aminocyclohexylamino)-4-(1H-pyrazol-5-yl)-6,7-dihydro-5H-pyrrolo[3,4-c]pyrimidin-5-one] | 794 nM
Cc1cccc(Nc2nc(CCCN)nc3c2C(=O)NC3)c1 [Example 49, 2-(3-Aminopropyl)-4-(m-tolylamino)-6,7-dihydro-5H-pyrrolo[3,4-d]pyrimidin-5-one] | > 20000 nM
N[C@H]1CCCC[C@H]1Nc1nc(-c2coc3ccccc23)c2c(c1F)CNC2=O [Example 50, 6-((1R,2S)-2-Aminocyclohexylamino)-4-(benzofuran-3-yl)-7-fluoro-1H-pyrrolo[3,4-c]pyridin-3(2H)-one] | 2.51 nM
N[C@H]1CCCC[C@H]1Nc1nc(-c2cnc3ccccn23)c2c(c1F)CNC2=O [Example 51, 6-((1R,2S)-2-aminocyclohexylamino)-7-fluoro-4-(imidazo[1,2-a]pyridin-3-yl)-1H-pyrrolo[3,4-c]pyridin-3(2H)-one] | 63.1 nM
N[C@H]1CCCC[C@H]1Nc1nc(-c2csc3ccccc23)c2c(c1F)CNC2=O [Example 52, 6-((1R,2S)-2-aminocyclohexylamino)-4-(benzo[b]thiophen-3-yl)-7-fluoro-1H-pyrrolo[3,4-c]pyridin-3(2H)-one] | 63.1 nM
CCOC[C@H](N)CNc1cc2c(c(Nc3cccc(C)c3)n1)C(=O)NC2 [Example 54, (R)-6-(2-Amino-3-ethoxypropylamino)-4-(m-tolylamino)-1H-pyrrolo[3,4-c]pyridin-3(2H)-one] | 251 nM
CCOC[C@H](N)CNc1nc(Nc2cccc(C)c2)c2c(c1F)CNC2=O [Example 55, (R)-6-(2-Amino-3-ethoxypropylamino)-7-fluoro-4-(m-tolylamino)-1H-pyrrolo[3,4-c]pyridin-3(2H)-one] | 15.8 nM
Cc1cccc(Nc2nc(NCC(N)C(F)(F)F)cc3c2C(=O)NC3)c1 (stereo not drawn) [Example 56, 6-(2-Amino-3,3,3-trifluoropropylamino)-4-(m-tolylamino)-1H-pyrrolo[3,4-c]pyridin-3(2H)-one] | 2510 nM
Cc1cccc(Nc2nc(N[C@H](CC(C)C)C(N)=O)cc3c2C(=O)NC3)c1 [Example 57, (R)-4-Methyl-2-(3-oxo-4-(m-tolylamino)-2,3-dihydro-1H-pyrrolo[3,4-c]pyridin-6-ylamino)pentanamide] | 15.8 nM
CCn1cc(-c2nc(N[C@@H]3CCCC[C@@H]3N)cc3c2C(=O)NC3)cn1 [Example 59, 6-((1R,2S)-2-Aminocyclohexylamino)-4-(1-ethyl-1H-pyrazol-4-yl)-1H-pyrrolo[3,4-c]pyridin-3(2H)-one] | 79.4 nM
CCn1cc(-c2nc(N[C@@H]3CCCC[C@@H]3N)c(F)c3c2C(=O)NC3)cn1 [Example 60, 6-((1R,2S)-2-Aminocyclohexylamino)-4-(1-ethyl-1H-pyrazol-4-yl)-7-fluoro-1H-pyrrolo[3,4-c]pyridin-3(2H)-one] | 15.8 nM
N[C@H]1CCCC[C@H]1Nc1cc2c(c(-c3cnn(C4CC4)c3)n1)C(=O)NC2 [Example 61] | 63.1 nM
N[C@H]1CCCC[C@H]1Nc1nc(-c2cnn(C(F)F)c2)c2c(c1F)CNC2=O [Example 62, 6-((1R,2S)-2-Aminocyclohexylamino)-4-(1-(difluoromethyl)-1H-pyrazol-4-yl)-7-fluoro-1H-pyrrolo[3,4-c]pyridin-3(2H)-one] | 10 nM
N[C@H]1CCCC[C@H]1Nc1nc(-c2cnn(C3CC3)c2)c2c(c1F)CNC2=O [Example 63, 6-((1R,2S)-2-Aminocyclohexylamino)-4-(1-cyclopropyl-1H-pyrazol-4-yl)-7-fluoro-1H-pyrrolo[3,4-c]pyridin-3(2H)-one] | 7.94 nM
Cn1cc(-c2nc(N[C@@H]3CCOC[C@@H]3N)c(F)c3c2C(=O)NC3)cn1 [Example 65, 6-((3R,4R)-3-Aminotetrahydro-2H-pyran-4-ylamino)-7-fluoro-4-(1-methyl-1H-pyrazol-4-yl)-1H-pyrrolo[3,4-c]pyridin-3(2H)-one] | 10 nM
CC(C)C[C@@H](Nc1nc(-c2cnn(C)c2)c2c(c1F)CNC2=O)C(N)=O [Example 70, (R)-2-(7-Fluoro-4-(1-methyl-1H-pyrazol-4-yl)-3-oxo-2,3-dihydro-1H-pyrrolo[3,4-c]pyridin-6-ylamino)-4-methylpentanamide] | 1.58 nM
CC(C)C[C@@H](Nc1nc(-c2cnn(C(F)F)c2)c2c(c1F)CNC2=O)C(N)=O [Example 71, (R)-2-(4-(1-(Difluoromethyl)-1H-pyrazol-4-yl)-7-fluoro-3-oxo-2,3-dihydro-1H-pyrrolo[3,4-c]pyridin-6-ylamino)-4-methylpentanamide] | 7.94 nM
